{
  "source": "patent US20160262923A1",
  "about": "“INTRAUTERINE DELIVERY SYSTEM” (BAYER OY, priority 2013, published 2016)",
  "key": {"[1]": {"test_system": "Uterine bleeding", "assay": "Comparison study in monkey, IUS vehicle vs LNG vs NP, uterine bleeding", "format": "in vivo, cynomolgus macaques", "conditions": "for number of bleeding days: first 7 days after insertion neglected", "protocol": "Animal Treatments: Adult cycling cynomolgus macaques were monitored to record regular menstrual cycles. Uterine bleeding was assessed daily by vaginal swabs (for sporadic vaginal spotting) and menstrual blood loss by vaginal tampons. After 2 menstrual cycles (˜60 days), the animals were assigned to treatment groups and laparotomized between days 6-8 (ideally day 7) of the follicular phase and an IUS was inserted by hysterotomy into the uterine lumen and sutured in place. Treatment IUS was as follows (n=5-6/group): • Group 1: Vehicle IUS • Group 2: 2 μg/day LNG • Group 3: 5 μg/day LNG • Group 4: 2 μg/day NP • Group 5: 5 μg/day NP Classification of bleeddings: Bleedings were grouped in three categories: a) positive swap or frank menses, which is the most heavy form of bleeding (BB, red colour), b) light positive swab, which is an intermediated type of bleeding (B, purple colour) and c) spot positive swab, which is a very light form of bleeding (S, orange colour). For evaluation of bleeding days, the first 7 days after insertion of the IUS were neglected, because the surgical insertion procedure already causes some bleedings in these days, which is unrelated progestin effects. FIGS. 2 and 3 and Tables 1 and 2 illustrate a comparison of 2 μg/d LNG release with 5 μg/d LNG release for 80 days with the IUS for each animal."}, "[2]": {"test_system": "uterine horn", "assay": "Weight gain of IUS-carrying uterine horn in ovary-resected rats", "format": "in vivo", "conditions": "E2 treated, IUS (rod) in right uterine horn", "protocol": "The local uterine action of the a.m. progestin compared to systemic side effects (dissociation) was investigated on the basis of studies using rats (see Example 4; FIGS. 4 to 6). The uterus of ovary-resected rats responded to implantation of progestin-containing IUS (rods) with decidualization and weight gain. The local progestin effects were also determined on the basis of changes in gene expression. […] The left uterine horn remained untreated for internal comparison."}, "[3]": {"assay": "Progestational activity compared to LNG"}, "[4]": {"conditions": "in vivo"}, "[5]": {"test_system": "IGFBP-1, Cyp26a1", "assay": "Gene expression analysis of uterine tissue after IUS (rods) in rats", "format": "in vivo", "conditions": "local administration by IUS (rods) in rats, identical release rates", "protocol": "The left uterine horn remained untreated for internal comparison.\nThe uterine tissue was homogenized in 800 μl of RLT lysis buffer (Qiagen, Hilden, Germany; #79216) using a Precellys24 homogenizer (Peqlab, Erlangen, Germany; 2.8 mm ceramic beads; #91-PCS-CK28, 2×6000 rpm). 400 μl of the homogenate obtained were used for isolating total RNA, using the QlAsymphony RNA kit (Qiagen, #931636) on a QlAsymphony SP robot for automated sample preparation. Reverse transcription of from 1 μg to 4 μg of total RNA was carried out using the SuperScript III first-strand synthesis system (Invitrogen, Carlsbad, USA; #18080-051) according to the random hexamer procedure.\nGene expression analysis was carried out with from 50 ng to 200 ng of cDNA per reaction on an SDS7900HT Real.time PCR system (Applied Biosystems, Carlsbad, USA) using TaqMan probes (Applied Biosystems; IGFBP-1 Rn00565713_m1, Cyp26a1 Rn00590308_m1, PPIA Rn00690933_m1) and the Fast Blue qPCR MasterMix Plus (Eurogentec, Liege, Belgium; #RT-QP2X-03+FB). For relative quantification, cyclophilin A (PPIA) was used as an endogenous control. Relative expression levels were calculated according to the comparative delta delta CT method."}, "[6]": {"conditions": "release rate 2 μg/d, total of 6 test animals"}, "[7]": {"conditions": "release rate 5 μg/d, total of group (LNG: 5 test animals)"}},
  "data": [
    {"compound": "C#C[C@]1(O)CC[C@H]2[C@@H]3CCC4=CC(=O)CC[C@@H]4[C@H]3CC[C@@]21CC", "note": "[LNG, levonorgestrel, reference compound]", "values": [
      {"measurement": "number of bleeding days", "setting": "[1]; [6]", "value": 24, "unit": "days"},
      {"measurement": "number of bleeding days", "setting": "[1]; [7]", "value": 4, "unit": "days"}
    ]},
    {"compound": "CC[C@]12CC[C@H]3[C@@H](CCC4=CC(=O)CC[C@@H]43)[C@@H]1[C@@H]1C[C@@H]1[C@@]21CCCO1", "note": "[compound A, 18-methyl-15β,16β-methylene-19-nor-20-spirox-4-en-3-one]", "values": [
      {"measurement": "local efficacy by way of weight gain in the IUS-carrying uterine horn", "setting": "[2]", "value": "dose-dependent local efficacy"},
      {"measurement": "progestional activity compared to LNG", "setting": "[3]", "value": "higher progestional activity"},
      {"measurement": "bleeding reduction compared to LNG", "setting": "[1]; 2 μg/d NP versus 2 μg/d LNG", "value": "higher bleeding reduction"},
      {"measurement": "bleeding compared to vehicle IUS group", "setting": "[1]; 2 μg/d release group", "value": "marked reduction of bleeding"},
      {"measurement": "bleeding compared to vehicle IUS group", "setting": "[1]; 5 μg/d release group", "value": "marked reduction of bleeding"},
      {"measurement": "number of bleeding days", "setting": "[1]; [6]", "value": 4, "unit": "days"},
      {"measurement": "number of bleeding days", "setting": "[1]; [7]", "value": "No bleeding"},
      {"measurement": "break-down rate", "setting": "[4]", "value": "very fast break-down rate"},
      {"measurement": "systemic stability / plasma clearance compared to LNG", "setting": "[4]", "value": "low systemic stability/higher plasma clearance"},
      {"measurement": "potency in inducing gene expression relative to levonorgestrel", "setting": "[5]", "value": "4- to 7 fold"}
    ]},
    {"compound": "CC[C@]12CCC3C4CCC(=O)C=C4C4CC4C3C1[C@@H]1C[C@@H]1[C@@]21CCCO1", "note": "(stereo partly drawn) [compound B, 18-methyl-6α,7α,15β,16β-dimethylene-19-nor-20-spirox-4-en-3-one]", "values": [
      {"measurement": "local efficacy by way of weight gain in the IUS-carrying uterine horn", "setting": "[2]", "value": "dose-dependent local efficacy"},
      {"measurement": "break-down rate", "setting": "[4]", "value": "very fast break-down rate"}
    ]}
  ]
}
